This is an account of results in ChEMBL document CHEMBL1687831 (Antimicrob Agents Chemother, 2011).

Experiment [1] is described as follows: Inhibition of beta-lactamase SHV1.
Experiment [2] is described as follows: Inhibition of acinetobacter-derived cephalosporinase.
Experiment [3] is described as follows: Inhibition of beta-lactamase AmpC expressed in Escherichia coli.
The nature of experiment [4]: Inhibition of beta-lactamase TEM1 expressed in Escherichia coli JM109.
Experiment [5] is described as follows: Inhibition of beta-lactamase CTX-M-9 expressed in Escherichia coli BL21(DE3).

SMILES strings stand for the structures.

The compound `CCN1CCN(C(=O)N[C@H](Cc2ccc(O)cc2)C(=O)NCB2OC(C)(C)C(C)(C)O2)C(=O)C1=O` came in with a Ki in experiment [1] of 9800 nM.

As to `CCN1CCN(C(=O)N[C@@H](C(=O)NCB(O)O)c2ccc(O)cc2)C(=O)C1=O` [CEFOPERAZONE BATSI], the Ki in experiment [1] worked out at 17000 nM; in experiment [2] it was 600 nM.

Turning to `CC(C)(O/N=C(\C(=O)NCB(O)O)c1csc(N)n1)C(=O)O` [CEFTAZIDIME BATSI], the Ki in experiment [3] stood at 20 nM; in experiment [2], 310 nM; in experiment [4], 390 nM; in experiment [5], 15 nM.
